Here are results for one molecule from ChEMBL document CHEMBL4024756, “Identification of 4-Phenoxyquinoline Based Inhibitors for L1196M Mutant of Anaplastic Lymphoma Kinase by Structure-Based Design” (J Med Chem, 2017).

SMILES strings stand for the structures. The source made the active and inactive calls. The calls are words filed in the database; no cut-off is given here.

This assay concerns ALK tyrosine kinase receptor (Homo sapiens), Q9UM73 [L1196M].
ALK tyrosine kinase receptor (Homo sapiens), Q9UM73 [L1196M], sequence (Q9UM73 whole entry L1196M, looked up): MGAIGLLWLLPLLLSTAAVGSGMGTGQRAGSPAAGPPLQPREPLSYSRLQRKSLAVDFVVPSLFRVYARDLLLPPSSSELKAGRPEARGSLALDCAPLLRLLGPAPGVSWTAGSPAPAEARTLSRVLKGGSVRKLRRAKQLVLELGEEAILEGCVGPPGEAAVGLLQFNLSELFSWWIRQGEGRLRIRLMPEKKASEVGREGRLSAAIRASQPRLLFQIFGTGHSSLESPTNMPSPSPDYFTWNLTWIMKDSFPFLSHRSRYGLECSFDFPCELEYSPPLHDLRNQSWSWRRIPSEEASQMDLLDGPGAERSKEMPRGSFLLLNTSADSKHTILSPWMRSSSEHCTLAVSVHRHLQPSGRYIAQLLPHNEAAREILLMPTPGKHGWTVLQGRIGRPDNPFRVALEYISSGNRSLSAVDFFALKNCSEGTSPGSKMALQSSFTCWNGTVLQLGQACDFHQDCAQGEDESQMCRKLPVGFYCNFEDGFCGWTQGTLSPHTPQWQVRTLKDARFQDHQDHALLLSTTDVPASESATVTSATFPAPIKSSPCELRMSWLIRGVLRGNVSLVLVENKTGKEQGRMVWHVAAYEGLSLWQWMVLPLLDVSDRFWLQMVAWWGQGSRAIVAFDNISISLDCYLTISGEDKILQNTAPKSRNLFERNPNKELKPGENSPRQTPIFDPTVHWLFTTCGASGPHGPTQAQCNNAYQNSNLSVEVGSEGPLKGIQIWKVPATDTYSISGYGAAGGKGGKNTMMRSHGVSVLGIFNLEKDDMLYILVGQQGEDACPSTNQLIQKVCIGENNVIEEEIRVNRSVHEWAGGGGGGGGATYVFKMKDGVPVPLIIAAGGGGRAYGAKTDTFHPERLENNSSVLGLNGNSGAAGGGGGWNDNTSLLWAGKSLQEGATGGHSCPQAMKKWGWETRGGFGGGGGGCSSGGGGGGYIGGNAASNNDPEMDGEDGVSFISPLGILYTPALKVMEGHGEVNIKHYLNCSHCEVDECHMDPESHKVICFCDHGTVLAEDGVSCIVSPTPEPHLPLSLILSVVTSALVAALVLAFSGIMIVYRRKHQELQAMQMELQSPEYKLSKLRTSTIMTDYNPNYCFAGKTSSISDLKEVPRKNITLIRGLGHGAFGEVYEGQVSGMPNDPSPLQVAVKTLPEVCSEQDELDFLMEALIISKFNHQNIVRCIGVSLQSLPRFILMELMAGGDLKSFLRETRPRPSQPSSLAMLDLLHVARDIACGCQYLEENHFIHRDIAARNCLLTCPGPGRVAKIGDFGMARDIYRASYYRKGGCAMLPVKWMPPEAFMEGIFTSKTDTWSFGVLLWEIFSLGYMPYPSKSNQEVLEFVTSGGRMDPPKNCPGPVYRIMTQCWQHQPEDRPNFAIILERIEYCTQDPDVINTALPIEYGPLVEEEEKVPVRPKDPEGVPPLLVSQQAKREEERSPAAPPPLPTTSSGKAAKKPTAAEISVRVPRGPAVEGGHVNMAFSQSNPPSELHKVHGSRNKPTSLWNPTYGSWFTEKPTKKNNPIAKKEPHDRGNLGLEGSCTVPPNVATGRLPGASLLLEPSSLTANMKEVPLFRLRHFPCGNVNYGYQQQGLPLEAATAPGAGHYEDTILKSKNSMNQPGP

For `Cc1ccc(Oc2ccnc3cc(-c4cnn(C5CCNCC5)c4)ccc23)cc1`, the TDI entry is “inactive”.
